From patent US20220168322A1, “NOVEL STAT3 INHIBITORS IDENTIFIED BY STRUCTURE-BASED VIRTUAL SCREENING INCORPORATING SH2 DOMAIN FLEXIBILITY” (Board of Regents, The University of Texas System, priority 2018, published 2022)

What follows are compounds tested on G-CSF-stimulated pSTAT3 (assay: Inhibition of G-CSF-stimulated pSTAT3 in Kasumi-1 cells (Luminex, pSTAT3/GAPDH)). Settings: Kasumi1 cells, single concentration of 10 μM, G-CSF 100 ng/ml; pSTAT3/GAPDH relative to DMSO treated cells.
Type: cell-based
Method: […] Total protein was assayed for pSTAT3 and GAPDH levels by Luminex. GAPDH-normalized pSTAT3 values were divided by the same for untreated cells and expressed as percentage. These values were plotted as a function of Log [M] compound, and IC50 calculated using GraphPad. Data from representative experiments from at least two repeats is shown.
Luminex bead-based assay. Luminex bead-based assays were used to determine levels of pSTAT3, pSTAT1, pSTAT5, and GAPDH, as described (Bharadwaj et al., 2015). […]

Going from `CCCC(NC(=O)c1ccccc1)C(=O)OCC(=O)Nc1nc2ccc(OC)cc2s1` (stereo not drawn) [AG-690/15437974] to `CCOC(=O)COc1ccc(-c2nc3ccccc3s2)cc1OC` [SPEC-33], the “% of Control Stimulated pSTAT3” value rises from 82% to 89%.

First: CC(=O)c1ccc(NC(=O)c2ccc(CSc3nnc(NC(=O)CCc4ccccc4)s3)cc2)cc1 [SPEC-3]
Second: CCC(Sc1nnc(NC(=O)CCc2ccccc2)s1)C(=O)Nc1ccc(C(C)=O)cc1 (stereo not drawn) [SPEC-45]
The “% of Control Stimulated pSTAT3” value of the first is lower: 77% for the first, 113% for the second.

Going from `Cc1c(C)c2ccc(OCC(=O)Nc3cccc([N+](=O)[O-])c3)c(C)c2oc1=O` [SPEC-9] to `Cc1c(Cl)c(=O)oc2c(C)c(OCc3ccc([N+](=O)[O-])cc3)ccc12` [SPEC-10], the “% of Control Stimulated pSTAT3” value falls from 93% to 87%.

Compared with `O=C(COc1ccc(/C=C2/SC(=O)N(CC(=O)N3CCN(c4ccccc4)CC3)C2=O)cc1Br)Nc1ccccc1` [SPEC-11], `O=C(CN1C(=O)S/C(=C\c2ccc(-c3cc(C(=O)O)ccc3Cl)o2)C1=O)Nc1ccccc1` [SPEC-23] is higher in “% of Control Stimulated pSTAT3” value: 86% for the first, 114% for the second.

Compared with `NC(=O)COc1ccc(/C=N/NC(=O)CCCOc2ccc(Cl)cc2Cl)cc1` [SPEC-12], `COc1cc(C=Nc2cccc(Cl)c2)ccc1OCC(N)=O` [SPEC-41] is lower in “% of Control Stimulated pSTAT3” value: 75% for the first, 74% for the second.

Compared with `O=C(O)COc1ccc(/C=N/NC(=O)C2CCCN2S(=O)(=O)c2ccc(Cl)cc2)cc1` (stereo not drawn) [SPEC-13], `O=C(CN1C(=O)S/C(=C/c2ccc(Cl)cc2)C1=O)Nc1ccc(S(=O)(=O)Nc2nccs2)cc1` [SPEC-105] is lower in “% of Control Stimulated pSTAT3” value: 99% for the first, 86% for the second.

Compared with `N#Cc1ccccc1Sc1ccccc1C(=O)Nc1ccc(OCC(=O)N2CCOCC2)cc1` [SPEC-14], `COC(=O)CSc1nc2ccc(NC(=O)c3ccccc3C(=O)N3CCN(c4ccccc4)CC3)cc2s1` [SPEC-27] is lower in “% of Control Stimulated pSTAT3” value: 91% for the first, 61% for the second.

Going from `CC(=O)NCCc1ccc(S(=O)(=O)Nc2ccc(C(=O)NCc3ccccc3)cc2)cc1` [SPEC-15] to `CC(=O)c1ccc(NC(=O)C(C)Oc2ccccc2)cc1` (stereo not drawn) [SPEC-94], the “% of Control Stimulated pSTAT3” value falls from 98% to 97%.

First: CC1=CC(=O)OC2C=C(OCCCCCCOC3=CC4OC(=O)C=C(C)C4C=C3)C=CC12 (stereo not drawn) [SPEC-17]
Second: COc1ccc(CCNC2CC(=O)N(c3ccc(N4C(=O)CC(NCCc5ccc(OC)cc5)C4=O)cc3)C2=O)cc1 (stereo not drawn) [SPEC-31]
The “% of Control Stimulated pSTAT3” value of the first is higher: 106% for the first, 99% for the second.

Compared with `Cc1ccccc1NC(=O)CN1C(=O)S/C(=C/c2ccc(-c3ccc(Cl)c(C(=O)O)c3)o2)C1=O` [SPEC-24], `O=C(O)c1ccc(-c2ccc(/C=C3/NC(=O)N(c4ccc(Cl)cc4)C3=O)o2)cc1` [SPEC-80] is lower in “% of Control Stimulated pSTAT3” value: 105% for the first, 89% for the second.

Compared with `O=C(CSc1nnc(-c2ccccc2)c(-c2ccccc2)n1)Nc1ccc(S(=O)(=O)Nc2nccs2)cc1` [SPEC-30], `O=C(CCN1C(=O)S/C(=C\c2ccc(Cl)cc2)C1=O)Nc1ccc(S(=O)(=O)Nc2nccs2)cc1` [SPEC-97] is lower in “% of Control Stimulated pSTAT3” value: 68% for the first, 55% for the second.

First: C=CCN1C(=O)NC(=O)/C(=C/c2ccc(OCC(=O)Nc3ccc(C)cc3)cc2)C1=O [SPEC-35]
Second: CCOc1ccc(NC(=O)CN2C(=O)S/C(=C/c3ccc(OCC(N)=O)c(OCC)c3)C2=O)cc1 [SPEC-40]
The “% of Control Stimulated pSTAT3” value of the first is lower: 69% for the first, 75% for the second.

First: O=C(O)c1ccc(-c2ccc(CNCCc3c[nH]c4ccccc34)o2)cc1 [SPEC-42]
Second: COc1ccccc1CCNCc1ccc(-c2cccc(C(=O)O)c2)o1 [SPEC-44]
The “% of Control Stimulated pSTAT3” value of the first is lower: 118% for the first, 120% for the second.

First: O=C(O)c1cccc(-c2ccc(CNCc3ccc4c(c3)OCO4)o2)c1 [SPEC-43]
Second: COc1cc(C=C2C(=O)OC(C)(c3ccccc3)OC2=O)ccc1OCc1cccc(C(=O)O)c1 (stereo not drawn) [SPEC-60]
The “% of Control Stimulated pSTAT3” value of the first is lower: 96% for the first, 98% for the second.

Going from `CC1=NN(c2ccc(C)cc2)C(=O)/C1=C\c1ccc(-c2ccc(C(=O)O)cc2)o1` [SPEC-46] to `COc1cccc(N=C2SC(C(=O)Nc3ccc(C(=O)O)cc3)CC(=O)N2C)c1` (stereo not drawn) [SPEC-95], the “% of Control Stimulated pSTAT3” value rises from 71% to 104%.

Going from `O=C(NNC(=O)[C@@H]1CCCC[C@@H]1C(=O)O)c1ccc(NC(=O)C2CC2)cc1` [SPEC-47] to `CC(=O)c1ccc(NC(=O)NC2CCCCC2)cc1` [SPEC-63], the “% of Control Stimulated pSTAT3” value rises from 104% to 118%.

Compared with `O=C(CCCCC(=O)NNC(=O)COc1ccc2ccccc2c1)NNC(=O)COc1ccc2ccccc2c1` [SPEC-49], `COc1ccc(C(=O)COC(=O)c2ccc(NC(=O)CCCC(=O)O)cc2)cc1` [SPEC-77] is higher in “% of Control Stimulated pSTAT3” value: 105% for the first, 121% for the second.

Compared with `CCN(CC)S(=O)(=O)c1ccc(NC(=O)CCCC(=O)Nc2ccc(S(=O)(=O)N(CC)CC)cc2)cc1` [SPEC-51], `O=C(CCCCC(=O)Nc1ccc(S(=O)(=O)N2CCCC2)cc1)Nc1ccc(S(=O)(=O)N2CCCC2)cc1` [SPEC-55] is higher in “% of Control Stimulated pSTAT3” value: 87% for the first, 114% for the second.

First: CC1CCN(S(=O)(=O)c2ccc(NC(=O)CCCC(=O)Nc3ccc(S(=O)(=O)N4CCC(C)CC4)cc3)cc2)CC1 [SPEC-52]
Second: O=C(CCCCC(=O)Nc1ccc(S(=O)(=O)Nc2ccc(F)cc2)cc1)Nc1ccc(S(=O)(=O)Nc2ccc(F)cc2)cc1 [SPEC-53]
The “% of Control Stimulated pSTAT3” value of the first is higher: 120% for the first, 71% for the second.

First: CCN1C(=O)/C(=C/c2ccc(OCC(=O)O)c(OC)c2)SC1=S [SPEC-59]
Second: CCN1C(=O)S/C(=C/c2ccc(OCc3cccc(C(=O)O)c3)c(Br)c2)C1=O [SPEC-83]
The “% of Control Stimulated pSTAT3” value of the first is higher: 78% for the first, 61% for the second.

First: CC(=O)N1CCc2nc(SCC(=O)Nc3cccc(C#N)c3)c(C#N)c(C(F)(F)F)c2C1 [SPEC-62]
Second: CC(=O)c1ccc(NC(=O)CSc2nnc(COc3ccc([N+](=O)[O-])cc3)n2C)cc1 [SPEC-92]
The “% of Control Stimulated pSTAT3” value of the first is higher: 108% for the first, 51% for the second.

First: COc1ccc(/C=N/NC(=O)COc2ccc(Cl)cc2)cc1COc1cccc2cccnc12 [SPEC-69]
Second: COc1cccc(-c2csc(NC(=O)C3CC(=O)N(c4cccc(Cl)c4)C3)n2)c1 (stereo not drawn) [SPEC-75]
The “% of Control Stimulated pSTAT3” value of the first is higher: 112% for the first, 55% for the second.

First: O=C(COC(=O)C1C2CC3C(OC(=O)C31)C2Br)c1ccc(Cl)cc1Cl (stereo not drawn) [SPEC-74]
Second: CCN1C(=O)N/C(=C/c2ccc(OCc3cccc(C(=O)O)c3)c(Cl)c2)C1=O [SPEC-79]
The “% of Control Stimulated pSTAT3” value of the first is higher: 82% for the first, 79% for the second.

Compared with `CC(=O)c1ccc(NC(=O)CSc2nnc(CNc3ccc(C)cc3C)n2CC2CCCO2)cc1` (stereo not drawn) [SPEC-89], `CC(=O)c1ccc(NC(=O)CSc2nn3c(SCC(=O)Nc4ccc(C(C)=O)cc4)nnc3s2)cc1` [SPEC-104] is higher in “% of Control Stimulated pSTAT3” value: 68% for the first, 91% for the second.

First: CC(=O)c1ccc(NC(=O)CC2S/C(=N\N=C3CCCCCC3)NC2=O)cc1 (stereo not drawn) [SPEC-99]
Second: COC(=O)CCC(=O)Nc1ccc(Cc2ccc(NC(=O)CCC(=O)OC)cc2)cc1 [SPEC-108]
The “% of Control Stimulated pSTAT3” value of the first is lower: 67% for the first, 98% for the second.

In the case of `CN1CCS/C1=C/C=C1\SC(=S)N(CC(=O)O)C1=O` [SPEC-107], the “% of Control Stimulated pSTAT3” value is reported as 107%.
